Values joined by “and” are separate entries in the source; they are usually repeats but may differ in a detail not shown here. Equal values may be shown once. Read-outs that look alike come from different tables or passages of the source.
How the values were obtained:
[1] = PNDA assay of •OH radicals from reaction with H2O2; conditions: for Concentration of •OH radical: 30 µM compound with excess H2O2; for Generation of ·OH radicals (in words): equimolar test compound with excess H2O2
Method: A previously reported spectrometric assay using PNDA was used to quantify the amount of reactive oxygen species (ROS), viz. •OH radicals, produced by the reaction of metal(II) complexes with hydrogen peroxide in borate buffer at pH 7.5 [24–26]. The percentage of PNDA bleaching and the concentration of •OH produced were determined.

[2] = system: B+ blood red blood cells (RBC); experiment: In vitro haemolytic assay; format: cell-based, human; conditions: 72 h
Method: Fresh B+ blood was washed with RPMI1640 medium containing of 30 µg/mL gentamicin (Gibco) and centrifuged at 1000 xg for 10 min three times. The percentage of haemolysis was determined spectroscopically using 5% haematocrit containing test compound at increasing concentration and incubated for 72 h at 37 °C [19, 20]. Untreated blood acted as negative control while blood treated with sterile distilled water acted as positive control (for 100% haemolysis).

[3] = system: Plasmodium falciparum 3D7 (Pf3D7); experiment: In vitro anti-malarial activity using SYBR Green I nucleic acid dye; format: cell-based; conditions: 72 h incubation, read-out: IC50 of Pf3D7
Method: (§1) The drug-sensitive strain of P. falciparum 3D7 (Pf3D7) was obtained from the Department of Science, Monash University, Malaysia and cultured as previously described. The artemisinin-resistant strain of P. falciparum IPC5202 (Pf5202) was obtained from BEI Resources and cultured as mentioned in the product sheet. Both strains were maintained in sealed flask at 37 °C in a humidified atmosphere of 5% O2, 5% CO2 and 90% N2. All buffer stock solutions for biological assays were autoclaved at 121 °C for 15 min.
(§2) Previously reported anti-malarial assay was used with slight modification using 1% parasitaemia (ring-stage) and 5% haematocrit treated with test compounds at increasing concentration and incubated for 72 h at 37 °C [21–23]. After the incubation, the assay was terminated by freeze/thaw cycle (− 80 °C overnight before thawing for 2 h) before the addition of lysis buffer containing SYBR Green I dye into each well and mixed thoroughly using the belly dancer for 30 min in the dark. Chloroquine diphosphate salt and artemisinin were used as standard drugs. The fluorescence signal was quantified at 485 nm excitation wavelength and 528 nm emission wavelength. IC50 values of each test compound was determined from a dose response curve by non-linear regression analysis.

[4] = system: Plasmodium falciparum IPC5202 (Pf5202); experiment: as above; format: cell-based; conditions: 72 h incubation, read-out: IC50 of Pf5202
Method: as §1, §2

[5] = target: Pf3D7 20S proteasome caspase-like (C-L) site (Plasmodium falciparum, UniProt Q8I0U7); experiment: 20S proteasome inhibition assay using parasite lysate; format: biochemical; conditions: Suc-LLE-AMC, 30 min
Method: (§3) To harvest P. falciparum parasites, intraerythrocytic Pf3D7 and Pf5202 were collected in trophozoite and early schizont stages. Red blood cells were lysed in 0.15% (w/v) saponin lysis buffer for 10 min at 37 °C. After lysis, the parasite pellet was washed once with PBS buffer by centrifuging at 1600 rpm for 5 min. Saponin lysis buffer was added once again to remove all the red blood cells for 10 min at 37 °C, followed by washing with PBS twice and immediately used or kept at − 80 °C. To prepare parasite lysates for proteasome purification, parasite pellet was resuspended with 100 µl of pre-cooled Pierce™ RIPA buffer. A mild protein extraction method was used to prepare parasite extracts. The resuspended parasites were passed 20 times through a needle with a diameter of 0.4 mm in a syringe on ice to lyse the parasite. After 15 min centrifugation at 13,000 xg at 4 °C, the supernatant was removed. Protein concentration was determined by the Bradford assay. The activities of 3 proteolytic sites were determined by fluorescence assay using fluorogenic peptide substrates (Suc-LLVY-AMC for chymotrypsin-like, Boc-LRR-AMC for trypsin-like and Suc-LLE-AMC for caspase-like) Proteasome activities were determined by monitoring the substrate hydrolysis for 30 min at 37 °C with 340 nm excitation and 465 nm emission wavelength. Activity of each proteolytic site were calculated, and the IC50 values were determined from the non-linear regression analysis. VR23 proteasome inhibitor was used as positive control.

[6] = target: Pf5202 20S proteasome chymotrypsin-like (CT-L) site (Plasmodium falciparum, UniProt Q8IJT1); experiment: as above; format: biochemical; conditions: Suc-LLVY-AMC, 30 min
Method: as §3

[7] = target: Pf3D7 20S proteasome trypsin-like (T-L) site (Plasmodium falciparum, UniProt Q8I6T3); experiment: as above; format: biochemical; conditions: Boc-LRR-AMC, 30 min
Method: as §3

[8] = target: Pf5202 20S proteasome trypsin-like (T-L) site (Plasmodium falciparum, UniProt Q8I6T3); experiment: as above; format: biochemical; conditions: for IC50: parasite lysate, Boc-LRR-AMC, 30 min
Method: as §3

[9] = target: Pf5202 20S proteasome caspase-like (C-L) site (Plasmodium falciparum, UniProt Q8I0U7); experiment: as above; format: biochemical; conditions: Suc-LLE-AMC, 30 min
Method: as §3

[10] = target: Pf3D7 20S proteasome chymotrypsin-like (CT-L) site (Plasmodium falciparum, UniProt Q8IJT1); experiment: as above; format: biochemical; conditions: Suc-LLVY-AMC, 30 min
Method: as §3

[11] = system: Pf3D7; experiment: Intracellular ROS level using DCFH-DA; format: cell-based, Plasmodium falciparum
Method: (§4) After incubation, packed cells were washed with phosphate buffer saline (PBS) solution. […] The data was expressed as fold change between amount of ROS produced by treated P. falciparum against untreated P. falciparum. Normalization was done with the percentage of parasite viability obtained at each condition. Hydrogen peroxide was used as positive control.

[12] = system: Pf5202; experiment: Intracellular ROS level using DCFH-DA; format: cell-based, Plasmodium falciparum
Method: as §4

Sequence of Pf3D7 20S proteasome trypsin-like (T-L) site (Q8I6T3 entry or part of it): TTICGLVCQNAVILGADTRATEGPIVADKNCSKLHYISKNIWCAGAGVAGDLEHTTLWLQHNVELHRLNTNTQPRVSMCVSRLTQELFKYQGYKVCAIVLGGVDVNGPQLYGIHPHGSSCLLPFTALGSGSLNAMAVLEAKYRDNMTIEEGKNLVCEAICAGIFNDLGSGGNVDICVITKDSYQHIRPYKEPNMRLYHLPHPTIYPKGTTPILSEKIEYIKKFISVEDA
Sequence of Pf3D7 20S proteasome caspase-like (C-L) site (Q8I6T3 entry or part of it): as above
Sequence of Pf3D7 20S proteasome caspase-like (C-L) site (Q8I0U7 entry or part of it): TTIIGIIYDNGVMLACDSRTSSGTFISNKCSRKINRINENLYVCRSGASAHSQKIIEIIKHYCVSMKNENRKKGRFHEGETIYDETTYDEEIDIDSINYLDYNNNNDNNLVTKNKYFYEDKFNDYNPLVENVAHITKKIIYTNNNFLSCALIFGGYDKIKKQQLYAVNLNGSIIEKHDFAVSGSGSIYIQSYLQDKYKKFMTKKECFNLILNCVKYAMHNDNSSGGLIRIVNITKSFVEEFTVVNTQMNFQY
Sequence of Pf5202 20S proteasome trypsin-like (T-L) site (Q8I6T3 entry or part of it): as the sequence (Q8I6T3 entry or part of it) above
Sequence of Pf3D7 20S proteasome chymotrypsin-like (CT-L) site (Q8IJT1 entry or part of it): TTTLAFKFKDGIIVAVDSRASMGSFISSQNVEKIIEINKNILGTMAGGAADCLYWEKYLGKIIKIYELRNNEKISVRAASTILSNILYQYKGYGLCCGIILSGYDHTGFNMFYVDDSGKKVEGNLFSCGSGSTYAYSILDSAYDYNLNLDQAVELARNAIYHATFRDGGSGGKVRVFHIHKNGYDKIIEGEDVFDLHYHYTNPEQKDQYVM
Sequence of Pf5202 20S proteasome chymotrypsin-like (CT-L) site (Q8IJT1 entry or part of it): as above
Sequence of Pf5202 20S proteasome caspase-like (C-L) site (Q8I0U7 entry or part of it): as the sequence (Q8I0U7 entry or part of it) above
Sequence of Pf5202 20S proteasome caspase-like (C-L) site (Q8I6T3 entry or part of it, further chain): as the sequence (Q8I6T3 entry or part of it) above

Row | Compound | Concentration of •OH radical ([1]; 24 h) | Concentration of •OH radical ([1]; 48 h) | Concentration of •OH radical ([1]; 72 h) | IC50 [3] | IC50 [4] | IC50 [5] | IC50 [6] | IC50 [7] | IC50 [8] | IC50 [9] | IC50 [10] | Generation of ·OH radicals (in words) [1] | fold change in ROS ([11]; 48 h, 0.2 µM) | fold change in ROS ([11]; 48 h, 1.0 µM) | fold change in ROS ([11]; 48 h, 5.0 µM) | fold change in ROS ([11]; 48 h, 25.0 µM) | fold change in ROS ([12]; 24 h, 1.0 µM) | fold change in ROS ([12]; 48 h, 5.0 µM) | fold change in ROS ([12]; 48 h, 25.0 µM) | fold change in ROS ([12]; 72 h, 1.0 µM) | other results
1 | O.O.O.O=[N+]([O-])[O-].O=[N+]([O-])[O-].[Cu+2] [Cu(NO3)2·3H2O, Copper(II) nitrate trihydrate, reference compound] | 36.29 ± 1.80 µM | 33.20 ± 1.62 µM | 29.82 ± 1.60 µM | 46.1 ± 4.29 µM | 49.4 ± 2.3 µM | – | – | – | – | – | – | – | – | – | – | – | – | – | – | – | Concentration of •OH radical ([1]; 2 h): 14.59 ± 2.39 µM; Concentration of •OH radical ([1]; 4 h): 19.27 ± 2.36 µM; Percentage of haemolysis (haemolytic index, HI) ([2]; 1 µM, B+ blood): 3%; IC50 ([3]; listed as copper(II) nitrate): ~46 µM; IC50 ([4]; listed as copper(II) nitrate): ~49 µM
2 | O=[N+]([O-])c1ccc(S(=O)(=O)N2CCN(c3ccnc4cc(Cl)ccc34)CC2)c([N+](=O)[O-])c1 [VR23, reference compound] | – | – | – | – | – | > 5 µM | > 5 µM | 0.78 ± 0.11 µM | 0.86 ± 0.09 µM | > 5 µM | > 5 µM | – | – | – | – | – | – | – | – | – | –
3 | O.O.O.O.O.O.O=[N+]([O-])[O-].O=[N+]([O-])[O-].[Zn+2] [Zn(NO3)2·6H2O, Zinc(II) nitrate hexahydrate] | – | – | – | > 100 µM | > 100 µM | – | – | – | – | – | – | did not generate any ·OH radicals | – | – | – | – | – | – | – | – | –
4 | c1cnc2c(c1)ccc1cccnc12 [phen, 1,10-phenanthroline, reference compound] | 0.15 ± 0.07 µM | 0.36 ± 0.17 µM | 0.30 ± 0.23 µM | – | – | > 25 µM | – | 4.47 ± 0.6 µM | 1.79 ± 0.66 µM | – | – | did not generate any ·OH radicals | 3.10 ± 0.98 fold | 2.91 ± 0.05 fold | 4.47 ± 0.71 fold | 6.09 ± 0.91 fold | 1.08 ± 0.09 fold | 1.40 ± 0.13 fold | 1.32 ± 0.31 fold | 1.17 ± 0.44 fold | Factor by which T-L site of Pf5202 is inhibited better than that of Pf3D7 ([8]; ratio of T-L IC50 values): about 2.5 ×; IC50 ([3]; Plasmodium falciparum, 3D7): 4.27 ± 0.05 µM; IC50 ([4]; Plasmodium falciparum): > 100 µM; fold change in ROS ([12]; 24 h, 0.2 µM): 1.06 ± 0.06 fold; fold change in ROS ([12]; 24 h, 5.0 µM): 0.91 ± 0.05 fold; fold change in ROS ([12]; 24 h, 25.0 µM): 0.80 ± 0.04 fold; fold change in ROS ([12]; 48 h, 0.2 µM): 1.78 ± 0.78 fold; fold change in ROS ([12]; 48 h, 1.0 µM): 1.31 ± 0.21 fold; fold change in ROS ([12]; 72 h, 0.2 µM): 1.35 ± 0.71 fold; fold change in ROS ([12]; 72 h, 5.0 µM): 1.08 ± 0.51 fold; fold change in ROS ([12]; 72 h, 25.0 µM): 1.21 ± 1.25 fold
5 | [Zn(phen)(NO3)-4,4′-bipy-Zn(phen)(NO3)](NO3)2·2H2O [Complex 4] | – | – | – | 3.9 µM and 3.93 µM | > 100 µM | > 25 µM | > 25 µM | > 25 µM | > 25 µM | > 25 µM | > 25 µM | did not generate any ·OH radicals | 0.52 ± 0.26 fold | 0.77 ± 0.58 fold | 0.85 ± 0.40 fold | 0.42 ± 0.19 fold | 0.44 ± 0.25 fold | 0.43 ± 0.09 fold | 0.39 ± 0.36 fold | 0.45 ± 0.32 fold | Haemolysis on B+ blood (in words) ([2]; up to 25 µM): no haemolysis; fold change in ROS ([11]; 24 h, 25.0 µM): 0.31 ± 0.31 fold; fold change in ROS ([11]; 72 h, 0.2 µM): 1.52 ± 0.07 fold; fold change in ROS ([11]; 72 h, 1.0 µM): 1.52 ± 0.14 fold; fold change in ROS ([11]; 72 h, 5.0 µM): 1.85 ± 0.27 fold; fold change in ROS ([11]; 72 h, 25.0 µM): 1.19 ± 0.57 fold; fold change in ROS ([12]; 72 h, 5.0 µM): 0.33 ± 0.01 fold; fold change in ROS ([12]; 72 h, 25.0 µM): 0.13 ± 0.05 fold
